In this assay the target is T1, human V1a receptor (Homo sapiens, UniProt P37288).
T1 construct: expressed in transfected cells; host or cells: HEK293 cells, transiently transfected; cell membranes
T1 sequence (P37288 whole entry): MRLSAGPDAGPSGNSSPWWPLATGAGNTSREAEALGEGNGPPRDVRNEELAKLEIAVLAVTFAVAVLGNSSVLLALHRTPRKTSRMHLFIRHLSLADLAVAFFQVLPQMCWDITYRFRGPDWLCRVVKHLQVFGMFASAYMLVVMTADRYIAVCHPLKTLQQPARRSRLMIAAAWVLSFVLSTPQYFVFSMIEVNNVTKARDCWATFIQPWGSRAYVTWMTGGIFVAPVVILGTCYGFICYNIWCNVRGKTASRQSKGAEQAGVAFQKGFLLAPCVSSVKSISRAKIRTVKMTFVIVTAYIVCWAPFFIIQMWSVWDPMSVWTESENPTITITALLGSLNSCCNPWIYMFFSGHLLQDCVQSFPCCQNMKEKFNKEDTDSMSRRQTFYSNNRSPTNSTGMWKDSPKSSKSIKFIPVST
As to the kind of experiment: human V1a receptor binding studies (3H-Vasopressin, SPA beads). The note with it: membranes of HEK293 cells transiently transfected with human V1a receptor, Ki by Cheng-Prussoff from IC50, read-out: pKi hV1a (converted). In short, it runs like this:
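Membranes from transiently transfected HEK293 cells expressing cloned human V1a receptor, on yttrium silicate SPA beads, competed against 4 nM 3H-vasopressin (added stock concentration) in Tris buffer with NaCl, KCl, CaCl2, MgCl2 for 1 h at room temperature. Nonspecific binding with cold vasopressin; IC50 by nonlinear fit, Ki via Cheng-Prusoff.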
On to `O=C1N=C(N2CCC3(CC2)OCc2ccccc23)OC1c1ccccc1` (centres unmarked) [Example 12, 5-Phenyl-2-(1′H,3H-spiro[2-benzofuran-1,4′-piperidin]-1′-yl)-1,3-oxazol-4(5H)-one], for which the Ki is 316 nM. Regarding `O=C1N=C(N2CCC3(CC2)OCc2ccccc23)OC1Cc1ccccc1` (centres unmarked) [Example 17, 5-Benzyl-2-(1′H,3H-spiro[2-benzofuran-1,4′-piperidin]-1′-yl)-1,3-oxazol-4(5H)-one], the Ki is 3.98 nM.

Consider `O=C1N=C(N2CCC3(CC2)OCc2ccccc23)O[C@@H]1Cc1ccccc1` [Example 18, (+)-(5R)-5-Benzyl-2-(1′H,3H-spiro[2-benzofuran-1,4′-piperidin]-1′-yl)-1,3-oxazol-4(5H)-one], for which the Ki is 1.58 nM. The figure for `O=C1N=C(N2CCC3(CC2)OCc2ccccc23)O[C@H]1Cc1ccccc1` [Example 19, (−)-(5S)-5-Benzyl-2-(1′H,3H-spiro[2-benzofuran-1,4′-piperidin]-1′-yl)-1,3-oxazol-4(5H)-one] is 25.1 nM; for `CC1OC2(CCN(C3=NC(=O)C(Cc4ccccc4)O3)CC2)c2ccccc21` (centres unmarked) [Example 22, 5-Benzyl-2-(3-methyl-1′H,3H-spiro[2-benzofuran-1,4′-piperidin]-1′-yl)-1,3-oxazol-4(5H)-one] it is 1.26 nM; for `O=C1N=C(N2CCC3(CC2)OCc2cccc(F)c23)OC1Cc1ccccc1` (centres unmarked) [Example 23, 5-Benzyl-2-(7-fluoro-1′H,3H-spiro[2-benzofuran-1,4′-piperidin]-1′-yl)-1,3-oxazol-4(5H)-one] it is 2.51 nM.

Regarding `O=C1N=C(N2CCC3(CC2)OCc2c(F)cccc23)OC1Cc1ccccc1` (centres unmarked) [Example 24, 5-Benzyl-2-(4-fluoro-1′H,3H-spiro[2-benzofuran-1,4′-piperidin]-1′-yl)-1,3-oxazol-4(5H)-one], the Ki was 6.31 nM. The figure for `O=C1N=C(N2CCC3(CC2)OCc2ccc(F)cc23)OC1Cc1ccccc1` (centres unmarked) [Example 25, 5-Benzyl-2-(6-fluoro-1′H,3H-spiro[2-benzofuran-1,4′-piperidin]-1′-yl)-1,3-oxazol-4(5H)-one] is 6.31 nM; for `CC1(C)OC2(CCN(C3=NC(=O)C(Cc4ccccc4)O3)CC2)c2ccccc21` (centres unmarked) [Example 26, 5-Benzyl-2-(3,3-dimethyl-1′H,3H-spiro[2-benzofuran-1,4′-piperidin]-1′-yl)-1,3-oxazol-4(5H)-one] it is 0.631 nM; for `O=C1OC2(CCN(C3=NC(=O)C(Cc4ccccc4)O3)CC2)c2ccc(F)cc21` (centres unmarked) [Example 27, 1′-(5-Benzyl-4-oxo-4,5-dihydro-1,3-oxazol-2-yl)-5-fluoro-3H-spiro[2-benzofuran-1,4′-piperidin]-3-one] it is 15.8 nM. On to `O=C1N=C(N2CCC3(CC2)OCc2ncccc23)OC1Cc1ccccc1` (centres unmarked) [Example 28, 5-Benzyl-2-(1′H,7H-spiro[furo[3,4-b]pyridine-5,4′-piperidin]-1′-yl)-1,3-oxazol-4(5H)-one], for which the Ki is 79.4 nM. As for `O=C1N=C(N2CCC3(CC2)OCc2cccnc23)OC1Cc1ccccc1` (centres unmarked) [Example 29, 5-Benzyl-2-(1′H,5H-spiro[furo[3,4-b]pyridine-7,4′-piperidin]-1′-yl)-1,3-oxazol-4(5H)-one], the Ki was 10 nM. The result for `O=C1OC2(CCN(C3=NC(=O)C(Cc4ccccc4)O3)CC2)c2cccc(F)c21` (centres unmarked) [Example 30, 1′-(5-Benzyl-4-oxo-4,5-dihydro-1,3-oxazol-2-yl)-4-fluoro-3H-spiro[2-benzofuran-1,4′-piperidin]-3-one] reads 200 nM; that for `COc1ccc2c(c1)C(=O)OC21CCN(C2=NC(=O)C(Cc3ccccc3)O2)CC1` (centres unmarked) [Example 31, 1′-(5-Benzyl-4-oxo-4,5-dihydro-1,3-oxazol-2-yl)-5-methoxy-3H-spiro[2-benzofuran-1,4′-piperidin]-3-one], 100 nM. The figure for `O=C1OC2(CCN(C3=NC(=O)C(Cc4ccccc4)O3)CC2)c2ccc(Br)cc21` (centres unmarked) [Example 32, 1′-(5-Benzyl-4-oxo-4,5-dihydro-1,3-oxazol-2-yl)-5-bromo-3H-spiro[2-benzofuran-1,4′-piperidin]-3-one] is 63.1 nM.

Take `O=C1N=C(N2CCC3(CC2)SCc2ccccc23)OC1Cc1ccccc1` (centres unmarked) [Example 33, 5-Benzyl-2-(1′H,3H-spiro[2-benzothiophene-1,4′-piperidin]-1′-yl)-1,3-oxazol-4(5H)-one]: the Ki is 12.6 nM. The figure for `O=C1N=C(N2CCC3(CC2)c2ccccc2CS3(=O)=O)OC1Cc1ccccc1` (centres unmarked) [Example 34, 5-Benzyl-2-(2,2-dioxido-1′H,3H-spiro[2-benzothiophene-1,4′-piperidin]-1′-yl)-1,3-oxazol-4(5H)-one] is 10 nM; for `O=C1N=C(N2CCC3(CC2)OCc2ccccc23)OC1Cc1ccc(Cl)cc1` (centres unmarked) [Example 35, 5-(4-Chlorobenzyl)-2-(1′H,3H-spiro[2-benzofuran-1,4′-piperidin]-1′-yl)-1,3-oxazol-4(5H)-one] it is 2 nM. The result for `O=C1N=C(N2CCC3(CC2)OCc2ccccc23)OC1C(O)c1ccc(Cl)cc1` (centres unmarked) [Example 40, 5-[(4-Chlorophenyl)(hydroxy)methyl]-2-(1′H,3H-spiro[2-benzofuran-1,4′-piperidin]-1′-yl)-1,3-oxazol-4(5H)-one] reads 3.98 nM; that for `CC(=O)OC(c1ccc(Cl)cc1)C1OC(N2CCC3(CC2)OCc2ccccc23)=NC1=O` (centres unmarked) [Example 41, (4-Chlorophenyl)[4-oxo-2-(1′H,3H-spiro[2-benzofuran-1,4′-piperidin]-1′-yl)-4,5-dihydro-1,3-oxazol-5-yl]methyl acetate], 31.6 nM; that for `C=CCC1(CC(=C)F)OC(N2CCC3(CC2)OCc2ccccc23)=NC1=O` (centres unmarked) [Example 54, 5-Allyl-5-(2-fluoroallyl)-2-(3H-spiro[isobenzofuran-1,4′-piperidine]-1′-yl)oxazol-4(5H)-one], 631 nM.

Consider `CC#CCC1(CC#CC)OC(N2CCC3(CC2)OCc2ccccc23)=NC1=O` [Example 55, 5,5-Di(but-2-ynyl)-2-(3H-spiro[isobenzofuran-1,4′-piperidine]-1′-yl)oxazol-4(5H)-one], for which the Ki was 5.01 nM. Consider `C=C(C)CC1(CC(=C)C)OC(N2CCC3(CC2)OCc2ccccc23)=NC1=O` [Example 56, 5,5-bis(2-Methylprop-2-en-1-yl)-2-(1′H,3H-spiro[2-benzofuran-1,4′-piperidin]-1′-yl)-1,3-oxazol-4(5H)-one], for which the Ki is 15.8 nM.

As for `C#CCC1(CC=C)OC(N2CCC3(CC2)OCc2ccccc23)=NC1=O` (centres unmarked) [Example 57, 5-(Prop-2-en-1-yl)-5-(prop-2-yn-1-yl)-2-(1′H,3H-spiro[2-benzofuran-1,4′-piperidin]-1′-yl)-1,3-oxazol-4(5H)-one], the Ki is 39.8 nM. The figure for `C=CCC1(CC=C)OC(N2CCC3(CC2)OCc2ccccc23)=NC1=O` [Example 58, 5,5-Di(prop-2-en-1-yl)-2-(1′H,3H-spiro[2-benzofuran-1,4′-piperidin]-1′-yl)-1,3-oxazol-4(5H)-one] is 50.1 nM. The figure for `C=CCC1(CC(=C)C)OC(N2CCC3(CC2)OCc2ccccc23)=NC1=O` (centres unmarked) [Example 59, 5-Allyl-5-(2-methylallyl)-2-(1′H,3H-spiro[2-benzofuran-1,4′-piperidin]-1′-yl)-1,3-oxazol-4(5H)-one] is 10 nM. `C=CCC1(CC(=C)C(F)(F)F)OC(N2CCC3(CC2)OCc2ccccc23)=NC1=O` (centres unmarked) [Example 60, 5-(Prop-2-en-1-yl)-2-(1′H,3H-spiro[2-benzofuran-1,4′-piperidin]-1′-yl)-5-[2-(trifluoromethyl)prop-2-en-1-yl]-1,3-oxazol-4(5H)-one]: the Ki was 25.1 nM. The result for `C=CCC1(CC(=C)C(=O)OCC)OC(N2CCC3(CC2)OCc2ccccc23)=NC1=O` (centres unmarked) [Example 61, Ethyl 2-{[4-oxo-5-(prop-2-en-1-yl)-2-(1′H,3H-spiro[2-benzofuran-1,4′-piperidin]-1′-yl)-4,5-dihydro-1,3-oxazol-5-yl]methyl}prop-2-enoate] reads 794 nM; that for `C#CCC1(CC(=C)C(=O)OCC)OC(N2CCC3(CC2)OCc2ccccc23)=NC1=O` (centres unmarked) [Example 62, Ethyl 2-((4-oxo-5-(prop-2-ynyl)-2-(3H-spiro[isobenzofuran-1,4′-piperidine]-1′-yl)-4,5-dihydrooxazol-5-yl)methyl)acrylate], 631 nM; that for `C=CCC1(CC(=C)Br)OC(N2CCC3(CC2)OCc2ccccc23)=NC1=O` (centres unmarked) [Example 63, 5-(2-Bromoprop-2-en-1-yl)-5-(prop-2-en-1-yl)-2-(1′H,3H-spiro[2-benzofuran-1,4′-piperidin]-1′-yl)-1,3-oxazol-4(5H)-one], 12.6 nM.

`C=C(CC1(CC(=C)C(F)(F)F)OC(N2CCC3(CC2)OCc2ccccc23)=NC1=O)C(F)(F)F` [Example 64, 2-(3H-Spiro[isobenzofuran-1,4′-piperidine]-1′-yl)-5,5-bis(2-(trifluoromethyl)allyl)oxazol-4(5H)-one]: the Ki was 12.6 nM. The result for `C=CCC1(CC(=C)CO[Si](C)(C)C(C)(C)C)OC(N2CCC3(CC2)OCc2ccccc23)=NC1=O` (centres unmarked) [Example 65, 5-[2-({[tert-Butyl(dimethyl)silyl]oxy}methyl)prop-2-en-1-yl]-5-(prop-2-en-1-yl)-2-(1′H,3H-spiro[2-benzofuran-1,4′-piperidin]-1′-yl)-1,3-oxazol-4(5H)-one] reads 63.1 nM. As for `CCCCC1(C)OC(N2CCC3(CC2)OCc2ccccc23)=NC1=O` (centres unmarked) [Example 66, 5-Butyl-5-methyl-2-(1′H,3H-spiro[2-benzofuran-1,4′-piperidin]-1′-yl)-1,3-oxazol-4(5H)-one], the Ki is 39.8 nM.

Turning to `CCCCC1(C)OC(N2CCC3(CC2)OC(=O)c2ccccc23)=NC1=O` (centres unmarked) [Example 69, 1′-(5-Butyl-5-methyl-4-oxo-4,5-dihydro-1,3-oxazol-2-yl)-3H-spiro[2-benzofuran-1,4′-piperidin]-3-one], the Ki is 316 nM.

As to `CCC1(Cc2ccccc2)OC(N2CCC3(CC2)OCc2ccccc23)=NC1=O` (centres unmarked) [Example 74, 5-Benzyl-5-ethyl-2-(1′H,3H-spiro[2-benzofuran-1,4′-piperidin]-1′-yl)-1,3-oxazol-4(5H)-one], the Ki was 10 nM.

Source of the values: US9828385B2, “Spiro-oxazolones” (Hoffmann-La Roche Inc., priority 2014, dated 2017).
